From patent publication US20240238425A1, “HSD17B13 Inhibitors and/or Degraders” (Pfizer Inc., priority 2022, published 2024)
Where a name gives a salt, the structure may show the parent alone.

Tested on: HiBiT-HSD17β13 fusion protein (N-terminal HiBiT-tagged HSD17β13 isoform D) in Huh7 HiBiT-HSD17β13 OE cells
Experiment: Whole-cell Huh7-HSD17B13 HiBiT assay (degrader potency and maximal efficacy, luminescence readout)
Assay type: cell-based, human
Conditions: 24 hour incubation, geometric mean, * = geometric mean for all forms tested (parent and salt forms); for DC50: read-out: Huh7_HIBIT-HSD17β13_DC50 GMean DC50; for Huh7_HIBIT-HSD17β13_DC50 GMean Asymptote Maximum: max. concentration 1 μM
Summary of the method: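 Huh7 cells stably overexpressing N-terminal HiBiT-tagged HSD17β13 isoform D, clone matched to primary hepatocyte expression, were exposed to an 11-point, 1 in 3.162 dilution series (top 1 μM final) for 24 h at 37° C. Lytic HiBiT luminescence was normalised to DMSO and parental-cell controls; DC50 from four-parameter logistic fit, with CellTiter-Glo counter screen.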

DC50 [nM]	Compound	Huh7_HIBIT-HSD17β13_DC50 GMean Asymptote Maximum
0.91	O=C1CCN(c2cnc3cc(CN4CCN(c5ncc(-c6ccc7cn([C@H]8CC[C@H](CNC(=O)c9cc(F)c(O)c(F)c9F)CC8)nc7c6)cn5)CC4)ccn23)C(=O)N1 [Example 50, N-{[(1r,4r)-4-{6-[2-(4-{[3-(2,4-dioxo-1,3-diazinan-1-yl)imidazo[1,2-a]pyridin-7-yl]methyl}piperazin-1-yl)pyrimidin-5-yl]-2H-indazol-2-yl}cyclohexyl]methyl}-2,3,5-trifluoro-4-hydroxybenzamide, trifluoroacetate salt]	85%
0.78	O=C1CCN(c2cnn3cc(CCCN4CCN(c5ncc(-c6ccc7cn([C@H]8CC[C@H](CNC(=O)c9cc(F)c(O)c(F)c9F)CC8)nc7c6)cn5)CC4)ccc23)C(=O)N1 [Example 53, N-{[(1r,4r)-4-{6-[2-(4-{3-[3-(2,4-dioxo-1,3-diazinan-1-yl)pyrazolo[1,5-a]pyridin-6-yl]propyl}piperazin-1-yl)pyrimidin-5-yl]-2H-indazol-2-yl}cyclohexyl]methyl}-2,3,5-trifluoro-4-hydroxybenzamide, trifluoroacetate salt]	77%
0.64	O=C1CCN(c2cnn3cc(CCN4CCN(c5ncc(-c6ccc7cn([C@H]8CC[C@H](CNC(=O)c9cc(F)c(O)c(F)c9F)CC8)nc7c6)cn5)CC4)ccc23)C(=O)N1 [Example 54, N-{[(1r,4r)-4-{6-[2-(4-{2-[3-(2,4-dioxo-1,3-diazinan-1-yl)pyrazolo[1,5-a]pyridin-6-yl]ethyl}piperazin-1-yl)pyrimidin-5-yl]-2H-indazol-2-yl}cyclohexyl]methyl}-2,3,5-trifluoro-4-hydroxybenzamide, trifluoroacetate salt]	83%
4.8	Cc1ccc(C(=O)N2CCC(OC3CCN(c4ncc(-c5ccc6cn([C@H]7CC[C@H](CNC(=O)c8cc(F)c(O)c(F)c8F)CC7)nc6c5)cn4)CC3)CC2)cc1N1CCC(=O)NC1=O [Example 57, N-{[(1r,4r)-4-(6-{2-[4-({1-[3-(2,4-dioxo-1,3-diazinan-1-yl)-4-methylbenzoyl]piperidin-4-yl}oxy)piperidin-1-yl]pyrimidin-5-yl}-2H-indazol-2-yl)cyclohexyl]methyl}-2,3,5-trifluoro-4-hydroxybenzamide, trifluoroacetate salt]	76%
1.5	Cc1ccc(C(=O)N2CCC3(CCN(c4ncc(-c5ccc6cn([C@H]7CC[C@H](CNC(=O)c8cc(F)c(O)c(F)c8F)CC7)nc6c5)cn4)CC3)C2)cc1N1CCC(=O)NC1=O [Example 58, N-({(1r,4r)-4-[6-(2-{2-[3-(2,4-dioxo-1,3-diazinan-1-yl)-4-methylbenzoyl]-2,8-diazaspiro[4.5]decan-8-yl}pyrimidin-5-yl)-2H-indazol-2-yl]cyclohexyl}methyl)-2,3,5-trifluoro-4-hydroxybenzamide, trifluoroacetate salt]	73%
1	Cc1ccc(C(=O)N2CCN(C3COC4(CCN(c5ncc(-c6ccc7cn([C@H]8CC[C@H](CNC(=O)c9cc(F)c(O)c(F)c9F)CC8)nc7c6)cn5)CC4)C3)CC2)cc1N1CCC(=O)NC1=O (some centres unmarked) [Example 59, N-{[(1r,4r)-4-{6-[2-(3-{4-[3-(2,4-dioxo-1,3-diazinan-1-yl)-4-methylbenzoyl]piperazin-1-yl}-1-oxa-8-azaspiro[4.5]decan-8-yl)pyrimidin-5-yl]-2H-indazol-2-yl}cyclohexyl]methyl}-2,3,5-trifluoro-4-hydroxybenzamide, trifluoroacetate salt]	80%
2.6	O=C1CCN(c2cnn3cc(CCCN4CCN(c5nccc(-c6nc([C@]78CC[C@](CNC(=O)c9cc(F)c(O)c(F)c9F)(CC7)CC8)no6)n5)CC4)ccc23)C(=O)N1 [Example 61, N-[(4-{5-[2-(4-{3-[3-(2,4-dioxo-1,3-diazinan-1-yl)pyrazolo[1,5-a]pyridin-6-yl]propyl}piperazin-1-yl)pyrimidin-4-yl]-1,2,4-oxadiazol-3-yl}bicyclo[2.2.2]octan-1-yl)methyl]-2,3,5-trifluoro-4-hydroxybenzamide, trifluoroacetate salt]	72%
2.6	Cc1ccc(C(=O)N2CCC3(CC2)CCN(c2ncc(-c4ccc5cn([C@H]6CC[C@H](CNC(=O)c7cc(F)c(O)c(F)c7F)CC6)nc5c4)cn2)C3)cc1N1CCC(=O)NC1=O [Example 63, N-({(1r,4r)-4-[6-(2-{8-[3-(2,4-dioxo-1,3-diazinan-1-yl)-4-methylbenzoyl]-2,8-diazaspiro[4.5]decan-2-yl}pyrimidin-5-yl)-2H-indazol-2-yl]cyclohexyl}methyl)-2,3,5-trifluoro-4-hydroxybenzamide]	80%
1.7	Cc1ccc(C(=O)N2CCC3(CC2)C[C@@H](N2CCN(c4ncc(-c5ccc6cn([C@H]7CC[C@H](CNC(=O)c8cc(F)c(O)c(F)c8F)CC7)nc6c5)cn4)CC2)CO3)cc1N1CCC(=O)NC1=O [Example 68, N-{[(1r,4r)-4-{6-[2-(4-{(3R)-8-[3-(2,4-dioxo-1,3-diazinan-1-yl)-4-methylbenzoyl]-1-oxa-8-azaspiro[4.5]decan-3-yl}piperazin-1-yl)pyrimidin-5-yl]-2H-indazol-2-yl}cyclohexyl]methyl}-2,3,5-trifluoro-4-hydroxybenzamide, trifluoroacetate salt]	79%
1.1	O=C1CCN(c2cnn3cc(CN4CCN(c5cnc(-c6ccc7cn([C@H]8CC[C@H](CNC(=O)c9cc(F)c(O)c(F)c9F)CC8)nc7c6)cn5)CC4)ccc23)C(=O)N1 [Example 70, N-{[(1r,4r)-4-{6-[5-(4-{[3-(2,4-dioxo-1,3-diazinan-1-yl)pyrazolo[1,5-a]pyridin-6-yl]methyl}piperazin-1-yl)pyrazin-2-yl]-2H-indazol-2-yl}cyclohexyl]methyl}-2,3,5-trifluoro-4-hydroxybenzamide, trifluoroacetate salt]	85%
2.4	Cc1ccc(C(=O)N2CCC3(CC2)CC(N2CCN(c4cnc(-c5ccc6cn([C@H]7CC[C@H](CNC(=O)c8cc(F)c(O)c(F)c8F)CC7)nc6c5)cn4)CC2)CO3)cc1N1CCC(=O)NC1=O (some centres unmarked) [Example 71, N-{[(1r,4r)-4-{6-[5-(4-{8-[3-(2,4-dioxo-1,3-diazinan-1-yl)-4-methylbenzoyl]-1-oxa-8-azaspiro[4.5]decan-3-yl}piperazin-1-yl)pyrazin-2-yl]-2H-indazol-2-yl}cyclohexyl]methyl}-2,3,5-trifluoro-4-hydroxybenzamide, trifluoroacetate salt]	76%
1.6	Cc1ccc(C(=O)N2CCC3(CC2)CC(N2CCN(c4cnc(-c5ccc6cn([C@H]7CC[C@H](CNC(=O)c8cc(F)c(O)c(F)c8F)CC7)nc6c5)cn4)CC2)C3)cc1N1CCC(=O)NC1=O [Example 72, N-{[(1r,4r)-4-{6-[5-(4-{7-[3-(2,4-dioxo-1,3-diazinan-1-yl)-4-methylbenzoyl]-7-azaspiro[3.5]nonan-2-yl}piperazin-1-yl)pyrazin-2-yl]-2H-indazol-2-yl}cyclohexyl]methyl}-2,3,5-trifluoro-4-hydroxybenzamide, trifluoroacetate salt]	78%
0.96	Cc1ccc(C(=O)N2CCC3(CC2)C[C@H](N2CCN(c4ncc(-c5ccc6cn([C@H]7CC[C@H](CNC(=O)c8cc(F)c(O)c(F)c8F)CC7)nc6c5)cn4)CC2)CO3)cc1N1CCC(=O)NC1=O [Example 73, N-{[(1r,4r)-4-{6-[2-(4-{(3S)-8-[3-(2,4-dioxo-1,3-diazinan-1-yl)-4-methylbenzoyl]-1-oxa-8-azaspiro[4.5]decan-3-yl}piperazin-1-yl)pyrimidin-5-yl]-2H-indazol-2-yl}cyclohexyl]methyl}-2,3,5-trifluoro-4-hydroxybenzamide, trifluoroacetate salt]	76%
2	Cc1ccc(C(=O)N2CCC3(CC2)CC(N2CCN(c4ccc5cn([C@H]6CC[C@H](CNC(=O)c7cc(F)c(O)c(F)c7F)CC6)nc5c4)CC2)C3)cc1N1CCC(=O)NC1=O [Example 82, N-({(1r,4r)-4-[6-(4-{7-[3-(2,4-dioxo-1,3-diazinan-1-yl)-4-methylbenzoyl]-7-azaspiro[3.5]nonan-2-yl}piperazin-1-yl)-2H-indazol-2-yl]cyclohexyl}methyl)-2,3,5-trifluoro-4-hydroxybenzamide, trifluoroacetate salt]	74%
3	O=C1CCN(c2cc(C(=O)N3CCC(CN4CCN(c5ncc(-c6ccc7cn([C@H]8CC[C@H](CNC(=O)c9cc(F)c(O)c(F)c9F)CC8)nc7c6)cn5)CC4)CC3)ccc2Cl)C(=O)N1 [Example 89, N-{[(1r,4r)-4-(6-{2-[4-({1-[4-chloro-3-(2,4-dioxo-1,3-diazinan-1-yl)benzoyl]piperidin-4-yl}methyl)piperazin-1-yl]pyrimidin-5-yl}-2H-indazol-2-yl)cyclohexyl]methyl}-2,3,5-trifluoro-4-hydroxybenzamide, formate salt]	77%
6.1	Cc1ccc(C(=O)N2CCN(C3CCN(c4ncc(-c5ccc6cn([C@H]7CC[C@H](CNC(=O)c8cc(F)c(O)c(F)c8F)CC7)nc6c5)cn4)CC3)CC2)cc1N1CCC(=O)NC1=O [Example 90, N-{[(1r,4r)-4-{6-[2-(4-{4-[3-(2,4-dioxo-1,3-diazinan-1-yl)-4-methylbenzoyl]piperazin-1-yl}piperidin-1-yl)pyrimidin-5-yl]-2H-indazol-2-yl}cyclohexyl]methyl}-2,3,5-trifluoro-4-hydroxybenzamide]	60* %
